11 molecules from patent US20210206817A1, “Metabolically Stable Apelin Analogs in the Treatment of Disease Mediated by the Apelin Receptor” (priority 2014, published 2021) can be followed below.

Read-outs that look alike come from different tables or passages of the source. Where a SMILES comes first, the peptide text is derived from it.

Assay [1] deals with T1, rat apelin receptor-EGFP (Rattus norvegicus, UniProt Q9JHG3).
T1 construct: expressed in transfected cells
T1 sequence (Q9JHG3 1-377): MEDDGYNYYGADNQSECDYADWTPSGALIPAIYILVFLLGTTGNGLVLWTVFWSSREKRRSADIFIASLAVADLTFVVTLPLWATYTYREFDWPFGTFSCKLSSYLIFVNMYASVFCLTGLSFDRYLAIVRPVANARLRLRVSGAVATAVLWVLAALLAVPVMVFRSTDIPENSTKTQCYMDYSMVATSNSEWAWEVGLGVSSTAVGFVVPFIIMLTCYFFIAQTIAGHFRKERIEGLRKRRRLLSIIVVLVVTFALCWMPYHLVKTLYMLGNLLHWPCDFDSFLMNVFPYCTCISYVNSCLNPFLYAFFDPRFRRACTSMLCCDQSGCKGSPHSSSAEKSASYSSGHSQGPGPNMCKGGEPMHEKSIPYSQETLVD
The experiment in a line: Apelin receptor-EGFP internalization, confocal microscopy. The format is cell-based. As to conditions: 1 μM, 20 min. The procedure: The internalization assay was performed as described previously with CHO cells stably expressing the rat apelin receptor-EGFP (43). […] Cells were then mounted in Aquapolymount (Polysciences, Warrington, Pa., USA) for confocal microscopic analysis (Sec (42) for details).

The target in assay [2] is T1, rat apelin receptor-EGFP. As to the kind of experiment: [125I]pE13F radioligand binding on CHO membrane preparations. The procedure:
Crude membrane preparation from CHO stably expressing the wild-type rat apelin receptor-EGFP, were prepared as previously described (39). […] The reaction was stopped by adding ice-cold binding buffer and filtered through glass microfiber filters (Whatman GF/C filters). Radioactivity was counted in Wizard 1470 Wallac gamma counter (Perkin Elmer, Turku, Finland).

Assay [3] has as its target T1, rat apelin receptor-EGFP. The experiment in a line: Inhibition of forskolin-induced cAMP production (HTRF). The class given is cell-based.
Method: cAMP was quantified using the cAMP dynamic 2 assay kit (Cisbio Bioassays, Codolet, France) based on homogeneous time-resolved fluorescence (HTRF) technology. The stimulation was done in the stimulation buffer (HBSS, 5 mM Hepes, 0.1% BSA stabilizer, 1 mM IBMX, pH 7.4). Briefly, 2,000/well CHO cells stably expressing the rat apelin receptor-EGFP were added into 384-well plate and stimulated with 10^−6 M forskolin (FSK) and increasing concentrations (10^−14 to 10^−4 M) of apelins or its analogs for 30 min at room temperature. Cells were then lyzed, and cAMP levels were determined following manufacturer instructions.
In assay [4] the test system is rat aortic rings precontracted by noradrenaline (NA). The experiment in a line: Isometric tension of aortic rings precontracted by noradrenaline. As to conditions: precontraction 3×10^−6 M NA. The procedure:
The experiments were performed in rat aortic rings as previously described (39). […] The aortas were cleaned of excess connective tissue and fat and cut into rings of approximately 3-4 mm in length. Special care was taken to avoid damaging the luminal surface of the endothelium. […] One end of the aortic ring was connected to a tissue holder and the other to an isometric force transducer (EMKA Technologies, Paris, France). […] During equilibration period, the rings were washed every 30 min. Then, a first relaxation to acetylcholine (Ach, 10^−4 mol/L) was implemented to check the integrity or the absence of the endothelium in rings precontracted with NA (3×10^−8 mol/L). After rinsing with PSS to baseline tension, rings were equilibrated for 90 min. […] Each concentration of the drug was added at the maximal effect of the precedent concentration. The concentration-response curves were continuously recorded on a PC by means of IOX v 2.4 (EMKA Technologies, Paris) for further analysis (Datanalyst v2.1, EMKA Technologies, Paris).

The mark [5] stands for this setting: competition with [125I]pE13F, CHO membranes, read-out: Ki for the apelin receptor (affinity).
Where [6] appears, read: 10^−6 M forskolin, read-out: IC50 inhibition of forskolin-induced cAMP production.
The mark [7] stands for this setting: Table 3, read-out: Ki nM ± SEM (15.11.2013).
Setting [8] is: Table 3, read-out: IC50 cAMP inhibition.

For the molecule `CSCC[C@H](NC(=O)[C@@H]1CCCN1C(=O)CNC(=O)[C@H](CCCCN)NC(=O)[C@H](Cc1c[nH]cn1)NC(=O)[C@H](CO)NC(=O)[C@H](CC(C)C)NC(=O)[C@H](CCCNC(=N)N)NC(=O)[C@@H]1CCCN1C(=O)[C@H](CCCNC(=N)N)NC(C)=O)C(=O)N1CCC[C@H]1C(=O)N[C@@H](Cc1ccccc1)C(=O)O` [Ac—R12F], the “induction of apelin receptor internalization” value (shortened to “induction”) in assay [1] is listed as “potent inducers of apelin receptor internalization”. Also, in assay [2] (setting [5]), the Ki is 1.4 ± 0.7 nM. The IC50 in assay [3] (setting [6]) was 2.4 ± 1.4 nM.
For `CSCC[C@H](NC(=O)[C@@H]1CCCN1C(=O)CNC(=O)[C@H](CCCCN)NC(=O)[C@H](Cc1c[nH]cn1)NC(=O)[C@H](CO)NC(=O)[C@H](CC(C)C)NC(=O)[C@H](CCCNC(=N)N)NC(=O)[C@@H]1CCCN1C(=O)[C@H](CCCNC(=N)N)NC(=O)[C@H](CCC(N)=O)NC(=O)[C@H](CCCNC(=N)N)NC(=O)[C@H](CCCNC(=N)N)NC(=O)[C@H](Cc1ccccc1)NC(=O)[C@H](CCCCN)NC(=O)[C@@H](N)CCCCNC(=O)CCC(F)(F)C(F)(F)C(F)(F)C(F)(F)C(F)(F)C(F)(F)C(F)(F)C(F)(F)F)C(=O)N1CCC[C@H]1C(=O)N[C@@H](Cc1ccccc1)C(=O)O` [JFM V-0210/1], in assay [2] (setting [7]), the inhibitory constant (Ki) turned out to be 0.18 ± 0.023 nM. Moreover, the IC50 in assay [3] (setting [8]) is 3.8 ± 1 nM.
The matching figures for `CCCCCCCCCCCCCCCC(=O)NCCCC[C@H](N)C(=O)N[C@@H](CCCCN)C(=O)N[C@@H](Cc1ccccc1)C(=O)N[C@@H](CCCNC(=N)N)C(=O)N[C@@H](CCCNC(=N)N)C(=O)N[C@@H](CCC(N)=O)C(=O)N[C@@H](CCCNC(=N)N)C(=O)N1CCC[C@H]1C(=O)N[C@@H](CCCNC(=N)N)C(=O)N[C@@H](CC(C)C)C(=O)N[C@@H](CO)C(=O)N[C@@H](Cc1c[nH]cn1)C(=O)N[C@@H](CCCCN)C(=O)NCC(=O)N1CCC[C@H]1C(=O)N[C@@H](CCSC)C(=O)N1CCC[C@H]1C(=O)N[C@@H](Cc1ccccc1)C(=O)O` [JFM V-0210/2]: 1.33 ± 0.15 nM and 1.4 ± 0.5 nM.
The matching figures for `CCCCCCCCCCCCCCCC(=O)NCCCC[C@H](N)C(=O)N[C@@H](Cc1ccccc1)C(=O)N[C@@H](CCCNC(=N)N)C(=O)N[C@@H](CCCNC(=N)N)C(=O)N[C@@H](CCC(N)=O)C(=O)N[C@@H](CCCNC(=N)N)C(=O)N1CCC[C@H]1C(=O)N[C@@H](CCCNC(=N)N)C(=O)N[C@@H](CC(C)C)C(=O)N[C@@H](CO)C(=O)N[C@@H](Cc1c[nH]cn1)C(=O)N[C@@H](CCCCN)C(=O)NCC(=O)N1CCC[C@H]1C(=O)N[C@@H](CCSC)C(=O)N1CCC[C@H]1C(=O)N[C@@H](Cc1ccccc1)C(=O)O` [JFM V-0220A]: 1.43 ± 0.74 nM and 2 ± 0.75 nM.
In the case of `CSCC[C@H](NC(=O)[C@@H]1CCCN1C(=O)CNC(=O)[C@H](CCCCN)NC(=O)[C@H](Cc1c[nH]cn1)NC(=O)[C@H](CO)NC(=O)[C@H](CC(C)C)NC(=O)[C@H](CCCNC(=N)N)NC(=O)[C@@H]1CCCN1C(=O)[C@H](CCCNC(=N)N)NC(=O)[C@H](CCC(N)=O)NC(=O)[C@H](CCCNC(=N)N)NC(=O)[C@H](CCCNC(=N)N)NC(=O)[C@H](Cc1ccccc1)NC(=O)[C@@H](N)CCCCNC(=O)CCC(F)(F)C(F)(F)C(F)(F)C(F)(F)C(F)(F)C(F)(F)C(F)(F)C(F)(F)F)C(=O)N1CCC[C@H]1C(=O)N[C@@H](Cc1ccccc1)C(=O)O` [JFM V-0220B], the Ki in assay [2] (setting [7]) came out at 0.16 ± 0.01 nM; in assay [2] (setting [5]) it was 0.2 nM. Moreover, in assay [3] (setting [8]), the 50% inhibitory concentration (IC50) amounted to 1 ± 0.4 nM.
Turning to `CCCC[C@H](NC(=O)[C@@H]1CCCN1C(=O)[C@@H](C)NC(=O)[C@H](CCCCN)NC(=O)C(C)(C)NC(=O)[C@H](CO)NC(=O)[C@@H](CC(C)C)NC(=O)[C@H](CCCNC(=N)N)NC(=O)[C@@H]1CCCN1C(=O)[C@H](CCCNC(=N)N)NC(=O)[C@@H](CCC(N)=O)NC(=O)[C@H](CCCNC(=N)N)NC(=O)[C@H](CCCNC(=N)N)NC(=O)[C@H](Cc1ccccc1)NC(=O)[C@H](CCCCN)NC(C)=O)C(=O)N1CCC[C@H]1C(=O)N[C@@H](Cc1ccc(Br)cc1)C(=O)O` [P95, N-Acetyl-Lys-Phe-Arg-Arg-D-Gln-Arg-Pro-Arg-D-Leu-Ser-Aib-Lys-D-Ala-Pro-Nle-Pro-(4-Br)Phe] (HELM PEPTIDE1{[ac].K.F.R.R.[dQ].R.P.R.[dL].S.[Aib].K.[dA].P.[Nle].P.[O=C(O)[C@H](Cc1ccc(Br)cc1)N[*:1]]}$$$$V2.0; C-terminus assumed), the “affinity improved as compared to K17F by a factor” value in assay [2] turned out to be 10. Also, the half-maximal inhibitory concentration (IC50) came out at 0.03 ± 0.02 nM in assay [2] (Table 1) and 0.34 ± 0.36 nM in assay [3] (Table 1, read-out: cAMP production IC50). In assay [2] (setting [5]), the inhibition constant (Ki) was 0.03 nM.
As for `CSCC[C@H](NC(=O)[C@@H]1CCCN1C(=O)CNC(=O)[C@H](CCCCN)NC(=O)[C@H](Cc1c[nH]cn1)NC(=O)[C@H](CO)NC(=O)[C@H](CC(C)C)NC(=O)[C@H](CCCNC(=N)N)NC(=O)[C@@H]1CCCN1C(=O)[C@H](CCCNC(=N)N)NC(=O)[C@@H]1CCC(=O)N1)C(=O)N1CCC[C@H]1C(=O)N[C@@H](Cc1ccc(Br)cc1)C(=O)O` [pE13(4Br-Phe^13)], in assay [1], the “induction” value was “potent inducers of apelin receptor internalization”. The inhibition constant Ki in assay [2] (setting [5]) was found to be 0.06 ± 0.02 nM. Moreover, the half-maximal inhibitory concentration (IC50) in assay [3] (setting [6]) was 0.1 ± 0.05 nM.
Regarding `CSCC[C@H](NC(=O)[C@@H]1CCCN1C(=O)CNC(=O)[C@H](CCCCN)NC(=O)C(C)(C)NC(=O)[C@H](CO)NC(=O)[C@H](CC(C)C)NC(=O)[C@H](CCCNC(=N)N)NC(=O)[C@@H]1CCCN1C(=O)[C@H](CCCNC(=N)N)NC(=O)[C@@H]1CCC(=O)N1)C(=O)N1CCC[C@H]1C(=O)N[C@@H](Cc1ccccc1)C(=O)O` [pE13F(Aib^7)] (HELM PEPTIDE1{[Glp].R.P.R.L.S.[Aib].K.G.P.M.P.F}$$$$V2.0; C-terminus assumed), the “induction” value in assay [1] was “potent inducers of apelin receptor internalization”. The Ki in assay [2] (setting [5]) was 2.6 ± 2.3 nM. In addition, the half-maximal inhibitory concentration (IC50) in assay [3] (setting [6]) is 1.2 ± 0.6 nM.
For `CSCC[C@H](NC(=O)[C@@H]1CCCN1C(=O)[C@@H](C)NC(=O)[C@H](CCCCN)NC(=O)[C@H](Cc1c[nH]cn1)NC(=O)[C@H](CO)NC(=O)[C@H](CC(C)C)NC(=O)[C@H](CCCNC(=N)N)NC(=O)[C@@H]1CCCN1C(=O)[C@H](CCCNC(=N)N)NC(=O)[C@@H]1CCC(=O)N1)C(=O)N1CCC[C@H]1C(=O)N[C@@H](Cc1ccccc1)C(=O)O` [pE13F(D-Ala^9)] (HELM PEPTIDE1{[Glp].R.P.R.L.S.H.K.[dA].P.M.P.F}$$$$V2.0; C-terminus assumed), in that order: “potent inducers of apelin receptor internalization”, 4.3 ± 1.8 nM and 43 ± 12 nM.
In the case of `CCCC[C@H](NC(=O)[C@@H]1CCCN1C(=O)CNC(=O)[C@H](CCCCN)NC(=O)[C@H](Cc1c[nH]cn1)NC(=O)[C@H](CO)NC(=O)[C@H](CC(C)C)NC(=O)[C@H](CCCNC(=N)N)NC(=O)[C@@H]1CCCN1C(=O)[C@H](CCCNC(=N)N)NC(=O)[C@@H]1CCC(=O)N1)C(=O)N1CCC[C@H]1C(=O)N[C@@H](Cc1ccccc1)C(=O)O` [pE13F(Nle^11)], in assay [1], the “induction” value is on record as “potent inducers of apelin receptor internalization”.
For the molecule `CSCC[C@H](NC(=O)[C@@H]1CCCN1C(=O)CNC(=O)[C@H](CCCCN)NC(=O)[C@H](Cc1c[nH]cn1)NC(=O)[C@H](CO)NC(=O)[C@H](CC(C)C)NC(=O)[C@H](CCCNC(=N)N)NC(=O)[C@@H]1CCCN1C(=O)[C@H](CCCNC(=N)N)NC(=O)[C@@H]1CCC(=O)N1)C(=O)N1CCC[C@H]1C(=O)N[C@@H](Cc1ccccc1)C(=O)O` [pE13F, reference compound], in assay [4], the maximal relaxant effect is 62±6% and the “potency (pD2) of relaxation” value is given as 8.00±0.59.
